Key:
immature uterus = assay: study of estrogenic activity (uterine weight of immature mice); conditions: same dosage schedule as estryne
Method: The animals were housed in a temperature controlled room under a constant lighting schedule and maintained on a diet of Charles River Rat Formula and water ad libitum. The diet of the hypophy-sectomized animals was supplemented with organges.
On the fourth day the uteri were removed and weighed.
Thus, immature female mice received estryne at doses up to a maximum of 100 μg total dose over three days, and the wet weight of the uteri were determined.

[1] = tested on: endogenous androgen biosynthesis; assay: study in intact male rats: weights of sex accessory tissue and other organs; assay type: in vivo, male Sprague-Dawley rats
Method: Studies with intact male Sprague-Dawley rats (300g body weight) are illustrated for compounds (1) and (2).
Similarly, compound (2), […] rats at a dosage of 20mg per kilo for 7 days produced 20% reduction in weight of the ventral prostate and 28% reduction of the dorsal lateral prostate.
The following data illustrates the inhibiting effect of estryne and pregnyne on Δ^5 -3-ketosteroid isomerase (EC 5.3.3.1) as evidenced by a depression of the wet weight of the sex accessory tissue in the mature male rat treated with the estryne and pregnyne.
A. Male rats were used to assess the effect of estryne on endogenous androgen biosynthesis at varying doses (1-20 mg/kg body weight). […] On the eighth day the animals were sacrificed and the ventral prostate, dorsal lateral prostate, seminal vesicles, testes, kidneys, and adrenals were removed and weighed. Samples of each tissue were preserved in 10% buffered formalin for histological examination.
B. Male rats were treated with 19-norpregnyne by a regimen exactly as described for the estryne.

[2] = target: Δ^5 -3-ketosteroid isomerase (Comamonas testosteroni, UniProt P00947); assay: inhibition of isomerase by allenic ketones, pseudo first order conditions; assay type: biochemical, Pseudomonas testosteroni; conditions: for half life for loss of enzyme activity / isomerisation of the allenic ketone under assay conditions: allenic ketone 200 μM, 1 mM phosphate buffer, pH = 7; for isomerisation of the allenic ketone under assay conditions: isomerase
Description: As noted above, the acetylenic compounds of the invention, e.g. estryne and pregnyne, are converted into the corresponding conjugated allenic ketones which then react irreversibly with the enzyme. These allenic ketones are also novel and constitute an important embodiment of the invention. The allenic ketones derived from estryne are 6β(H)-5,10-secoestra-4,5-diene-3,10,17-trione and 6α(H)-5,10-secoestra-4,5-diene-3,10,17-trione. These allenic ketones have been tested as inhibitors of isomerase and have been found effective in this regard.

[3] = tested on: ventral prostate and dorsal lateral prostate; assay: effects of 6β(H)-allenic ketone on intact male Sprague-Dawley rats: body and prostate weights; assay type: in vivo; conditions: 0.6mg in propylene glycol (0.2ml) daily for 7 days, i.p.
Method: Effects of 6β(H)-5,10-Seco-19-norestra-4,5-diene-3,10,17-trione on intact male Sprague-Dawley rats
The compound (0.6mg) dissolved in propylene glycol (0.2ml) was administered daily for 7 days by the intraperitoneal route. The experimental group and control group each comprised 5 animals; and weghts of animals as well the wet tissue weights of ventral prostate and dorsal lateral prostate are averaged for each group.

[4] = listed as 6β(H)-5,10-secoestra-4,5-diene-2,10,17-trione

Chain of Δ^5 -3-ketosteroid isomerase (P00947 whole entry, stated change not applied): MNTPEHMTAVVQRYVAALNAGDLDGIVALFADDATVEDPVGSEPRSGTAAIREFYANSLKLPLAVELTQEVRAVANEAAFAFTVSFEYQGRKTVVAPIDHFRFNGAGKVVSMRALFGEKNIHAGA

SMILES: C[C@]12CC[C@@H]3c4ccc(O)cc4CC[C@H]3[C@@H]1CC[C@@H]2O [17β-estradiol]
- dose giving maximum stimulation (uterine weight) (immature uterus): about 8 μg
- lowest dose giving a positive response (uterine weight) (immature uterus; "as low as"): 0.67 µg

SMILES: C[C@]12CC[C@@H]3C(=O)CCC(=O)CC#CC[C@H]3[C@@H]1CCC2=O [Compound 5, 5,10-secoestr-5-yne-3,10,17-trione]
- reduction in weight of the ventral prostate ([1]; 13mg per kilo per day, s.c. in sesame oil, 7 days): 30%
- Average Weight of Ventral Prostate ([1]; 13mg/Kg (so in the source) in propylene glycol (0.2ml) per day for 7 days, i.p., control 421 mg): 302 mg
- Average Weight of Ventral Prostate ([1]; 13mg/Kg in sesame oil (0.2ml) per day for 7 days, s.c., control 238 mg): 167 mg

SMILES: C[C@]12CC[C@@H]3C(=O)CCC(=O)C=C=CC[C@H]3[C@@H]1CCC2=O [6α(H)-5,10-secoestra-4,5-diene-3,10,17-trione]
- half life for loss of enzyme activity [2]: 11 min
- isomerisation of the allenic ketone under assay conditions [2]: partially converted to the β-isomer

SMILES: C[C@]12CC[C@@H]3C(=O)CCC(=O)C=C=CC[C@H]3[C@@H]1CCC2=O [6β(H)-5,10-secoestra-4,5-diene-3,10,17-trione]
- Wt. of Dorsal Lateral Prostate ([3]; control 299 mg): 235 mg
- Wt. of Ventral Prostate ([3]; control 574 mg): 488 mg
- Wt. of Animals ([3]; control 388 g): 382 g
- half life for loss of enzyme activity [2, 4]: 9 min
- inhibition of isomerase ([2]; in words): effective
- isomerisation of the allenic ketone under assay conditions [2, 4]: partially converted to the 6α isomer
